PubChem BioAssay (NCI)
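Five compound concentrations were applied to cells in 96-well plates for 48 hours; endpoints were derived by simple linear interpolation of the resulting dose-response curve. GI50 is the concentration that inhibits growth by half. Definition used: TGI = concentration required for complete inhibition of growth.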

How the values were obtained:
Assay in all cases: growth of human tumour cells (NCI), 48 h
[1] = system: SNB-19 CNS
[2] = system: OVCAR-4 ovarian
[3] = system: COLO 205 colon
[4] = system: CAKI-1 renal
[5] = system: T-47D breast
[6] = system: HS 578T breast
[7] = system: MDA-MB-231 breast
[8] = system: NCI-H23 lung
[9] = system: IGROV1 ovarian

| Structure (SMILES) | TGI [1] [µM] | TGI [2] [µM] | TGI [3] [µM] | TGI [4] [µM] | TGI [5] [µM] | TGI [6] [µM] | TGI [7] [µM] | TGI [8] [µM] | TGI [9] [µM] | GI50 [6] [µM] | GI50 [7] [µM] | GI50 [8] [µM] | GI50 [2] [µM] | GI50 [9] [µM] | GI50 [3] [µM] | GI50 [4] [µM] | GI50 [5] [µM] |
| --- | --- | --- | --- | --- | --- | --- | --- | --- | --- | --- | --- | --- | --- | --- | --- | --- | --- |
| O=c1[nH]/c(=C/c2ccc(OCc3ccccc3)cn2)c(=O)[nH]/c1=C/c1cccnc1 | > 100 | > 61.5 | 6.13 | > 100 | > 100 | – | – | – | – | – | – | – | – | – | – | – | – |
| CC1(C)CC(=O)C2=C(C1)OC1=C(CC(C)(C)CC1=O)C2c1ccccc1Cl (stereo not drawn) | > 100 | > 100 | > 100 | > 100 | > 100 | > 100 | > 100 | > 100 | > 100 | – | – | – | – | – | – | – | – |
| C[N+](C)([O-])Cc1cccc(NC(=O)c2ccc(C(=O)Nc3cccc(C[N+](C)(C)[O-])c3)cc2)c1 | > 100 | > 100 | > 100 | > 100 | > 100 | – | > 100 | > 100 | > 100 | – | – | – | – | – | – | – | – |
| Nc1c2ccccc2nc2ccc(C(=O)Nc3ccc(S(N)(=O)=O)cc3)cc12 | > 100 | > 100 | > 100 | > 100 | > 100 | > 100 | > 100 | > 100 | > 100 | – | – | – | – | – | – | – | – |
| C[N+]12C=CC=C1C(N1CCCC1)c1sc(-c3ccc(Cl)cc3)cc12 (stereo not drawn) | 26.8 | 33.4 | 31.6 | > 100 | 35.4 | 50.9 | 35.5 | – | 39 | – | – | – | – | – | – | – | – |
| CN(C)/C=C/c1ccnc2c1C(=O)c1ccccc1C2=O | 25.6 | 66 | > 55.1 | 50.8 | > 85 | 7.06 | > 89 | 7.17 | 35.2 | – | – | – | – | – | – | – | – |
| COc1cc2c(cc1C)NC(=O)/C2=C/c1c(Cl)n(C)c2ccccc12 | 38.6 | 25 | 31.2 | 24.4 | 19.3 | 12.8 | 65.1 | 21.6 | 17.1 | – | – | – | – | – | – | – | – |
| CCCCCCCCCCCCCCCCCc1nc(C#N)c(N)o1 | > 100 | – | – | > 100 | – | 85.4 | 96.5 | – | 36.4 | – | – | – | – | – | – | – | – |
| CC(C)(C)OC(=O)N(CCCN)CCCCN(CCCN)C(=O)OC(C)(C)C | > 100 | > 100 | > 100 | > 100 | > 100 | > 100 | – | > 100 | > 100 | – | – | – | – | – | – | – | – |
| Cc1ccc(-c2c(C#N)c(O)n(NS(=O)(=O)c3ccccc3)c(=O)c2C#N)cc1 | > 100 | > 100 | > 100 | > 100 | – | – | > 100 | – | > 100 | – | – | – | – | – | – | – | – |
| CCN1CCc2sc3[nH]c(=S)n(C)c(=O)c3c2C1 | > 100 | > 100 | > 100 | > 100 | > 100 | > 100 | > 100 | > 100 | > 100 | – | – | – | – | – | – | – | – |
| CC(C)NC(=O)OCc1c(COC(=O)NC(C)C)c(-c2ccc[n+](COC(=O)C3CCCCC3)c2)n2c1CCC2 | > 100 | > 100 | > 100 | 68.6 | > 100 | > 100 | > 100 | > 100 | > 100 | – | – | – | – | – | – | – | – |
| O=S(=O)(N1CCCCN(S(=O)(=O)C(F)(F)F)CCCN(S(=O)(=O)C(F)(F)F)CCCN(S(=O)(=O)C(F)(F)F)CCCCN(S(=O)(=O)C(F)(F)F)CCCN(S(=O)(=O)C(F)(F)F)CCC1)C(F)(F)F | > 100 | > 100 | > 100 | > 100 | > 100 | 92.4 | > 100 | > 100 | > 100 | – | – | – | – | – | – | – | – |
| O=C(c1ccccc1)c1cc(-c2ccccc2)c(-c2ccccc2)[nH]c(=O)c1=O | > 100 | > 100 | 61.5 | > 100 | – | > 100 | > 100 | 49.4 | > 100 | – | – | – | – | – | – | – | – |
| CC1=CC(=O)C[C@]2(C)[C@@H](O)CC(C(C)CO)C[C@@H]12 (stereo partly drawn) | > 100 | > 100 | > 100 | > 100 | > 100 | – | > 100 | > 100 | > 100 | – | – | – | – | – | – | – | – |
| Cc1cc(C)n(CN(Cn2nc(C)cc2C)c2ccc(N(Cn3nc(C)cc3C)Cn3nc(C)cc3C)cc2)n1 | 64.5 | 43 | 31.5 | 62.4 | 51.8 | 57 | 88.1 | 58.6 | 50.7 | – | – | – | – | – | – | – | – |
| COC(=O)C(I(OS(=O)(=O)c1ccc(C)cc1)c1ccccc1)=P(c1ccccc1)(c1ccccc1)c1ccccc1 | > 100 | 27 | 13.1 | > 100 | 48.2 | 85.1 | 75.6 | 34.1 | 37.7 | – | – | – | – | – | – | – | – |
| O=C1CSC(c2ccc(Cl)cc2)N1c1ccc(-n2c(-c3ccccc3)nc3ccccc3c2=O)cc1 (stereo not drawn) | > 100 | 41 | > 100 | > 100 | > 100 | > 100 | > 100 | > 100 | > 100 | – | – | – | – | – | – | – | – |
| CN(C)CCCn1c2c(c3ccncc3c1=O)C(=O)c1ccccc1-2 | – | 8.67 | 14.3 | 5.53 | 21 | 14.3 | 7.7 | 9.63 | > 100 | 1.74 | 1.77 | 1.08 | 1.37 | 0.955 | 0.806 | 0.572 | 1.67 |
| Cc1ccc(-c2cn3c(nc4ccccc43)c(C)n2)cc1 | > 100 | > 100 | > 100 | > 100 | > 30.1 | > 100 | > 100 | > 100 | > 31.6 | – | – | – | – | – | – | – | – |
| COc1cc(OC)cc(N(C)Cc2cnc3nc(N)nc(N)c3c2C)c1 | > 100 | > 100 | > 100 | > 100 | > 100 | > 100 | > 100 | > 100 | > 100 | – | – | – | – | – | – | – | – |
| CCCCCCc1cc2cc(C(=O)Nc3cccc(C(F)(F)F)c3)c(=N)oc2cc1O | > 44.3 | 14.3 | 21 | 11.5 | 1.04 | 9.99 | 7.69 | 1.76 | 11.1 | – | – | – | – | – | – | – | – |
| CCOc1c(OC)cc(CNNc2nccs2)cc1OC | > 100 | > 100 | > 100 | > 100 | > 100 | > 100 | > 100 | > 100 | > 100 | – | – | – | – | – | – | – | – |
